Data taken from patent US20100120690A1, “Polypeptides Having Antimicrobial Activity and Polynucleotides Encoding Same” (Novozymes Adenium Biotech A/S, priority 2005, published 2010).

Legend:
[1] = system: panel of 6 different strains of Staphylococcus aureus; test: Average MIC, NCCLS/CLSI guidelines using caMHB (Example 6); format: cell-based; conditions: average over 6 S. aureus strains, duplicate; MIC above 32 counted as 64; read after 18-24 hours at 37° C.
Procedure, shortened: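 Six Staphylococcus aureus strains, MSSA and MRSA, were exposed in duplicate to peptide dilutions from 32 down to 0.03 microgram/mL in caMHB following CLSI guidance. Growth was scored after 18-24 h incubation at 37° C. The tabulated value is the mean MIC, with 64 used for any MIC >32 micrograms/mL.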

[2] = system: B. subtilis; test: Minimal Inhibitory Concentration, NCCLS guidelines (Example 4); format: cell-based, Bacillus subtilis; conditions: purified peptide
Procedure: (§1) The Minimal Inhibitory Concentration (MIC, micrograms/mL) was determined to test for their antimicrobial activity following the NCCLS guidelines (Clinical and Laboratory Standards Institute; formerly known as National Committee for Clinical and Laboratory Standards).

[3] = system: M. luteus; test: as above; format: cell-based, Micrococcus luteus; conditions: purified peptide
Procedure: as §1

[4] = system: S. aureus; test: as above; format: cell-based, Staphylococcus aureus; conditions: purified peptide
Procedure: as §1

[5] = system: Staphylococcus carnosus; test: TAPS (Trans Acting Peptide System) assay, radial diffusion read-out; format: cell-based; parameters: key: classified as 4>3>2>1; whereas 4 is better than 1; classified as 4>3>2>1; classified as 4>3>2>1; wildtype activity corresponds to 1; conditions: peptide expressed in E. coli
Procedure: A range of antimicrobial polypeptides, which are variants of SEQ ID NO: 1, were tested in the TAPS assay. TAPS may be used to identify new or improved genes encoding peptides that can kill or inhibit the growth of target cells (see PCT application WO 2004/033715). The TAPS assay, an acronym for Trans Acting Peptide System, is based on having a sensitive host producing a peptide followed by screening for its activity in trans against an indicator strain. The advantage of this system is based on that the antimicrobial peptide is expressed in the Gram-negative bacterium E. coli and its antimicrobial activity can be monitored on different microbes including Gram-negatives, positives or fungi. Additionally, TAPS offers the possibility to produce correctly folded AMPs containing disulfide bonds in the host cells, thereby retaining their antimicrobial activities.
The TAPS approach requires first, that expression of the peptide is under control of an inducible promoter with tight regulation, because the host cells are sensitive to the peptide when producing it. Secondly, the produced peptide has to be released to the media so that it can interact with the target organism.
The TAPS screening can be carried out either in solid or liquid media. On solid media, a plasmid library is initially introduced into E. coli host cells. […] In the next step, the filter containing the colonies is transferred to LB growth medium containing inducer (0.1% arabinose) to permit peptide synthesis. Subsequently, the target strain, for example S. carnosus, is overlaid onto the plate and allowed to grow for 12-16 hours at 37° C. Finally, visual inspection of the host cells capable of reducing the proliferation of the target cells is performed and the nucleotide sequence encoding for the antimicrobial peptide is recovered from the host cells. DNA sequence analysis of the variants is obtained to elucidate the nature of the peptide.
As mentioned above, the TAPS screening can also be performed using liquid medium. This procedure requires the use of robotics to analyze large number of clones. In this system, the host E. coli origami cells are transformed with the plasmid library and plated out on LB medium+0.2% glucose+ampicillin (200 mg/L). Independent colonies are then inoculated into 96 or 384-well plates containing 200 micro-L of TB medium+ampicillin (200 mg/L) and cultured overnight at 37° C. These cultures are then replicated robotically and grown to exponential phase until inducer (0.1% arabinose) is added to trigger peptide synthesis. The next step consists in hydrolyzing the cells such that the peptide is released to the media by hot acid hydrolysis. This treatment consists on adding 1 M sodium Phosphate buffer pH 2.3 to obtain a final pH approximately of 2.3 and incubating the cultures overnight at 80° C. Next day, a 25 micro-L aliquot of the hydrolyzed cultures is used to perform an activity test against the desired target organisms. The activity test performed was a Radial Diffusion Assay (RDA) where an aliquot of the hydrolyzed cultures was added to the agarose media inoculated with the target strain, S. carnosus. […] Measurements of the diameter of the clearing zones were performed to quantify the potency of the antimicrobial activity of the peptides.
The antimicrobial activity (against Staphylococcus carnosus) of the tested plectasin variants, which was measured using the TAPS assay, is shown in table 3. The antimicrobial activity corresponds to the clearing zone size and has been classified as 4>3>2>1; whereas 4 is better than 1, and wildtype activity corresponds to 1.

[6] = system: M. luteus; test: Minimal Effective Concentration (MEC) assay; format: cell-based, Micrococcus luteus
Procedure: (§2) Three antimicrobial polypeptides, which are variants of SEQ ID NO: 1, were tested for antimicrobial activity. A Minimal Effective Concentration assay (MEC, expressed as micrograms/mL) against different microorganisms was performed using the three plectasin mutants, Y40YR, N17R and Y25R following the protocol described in the book of Methods in Molecular Biology, Vol. 78, Antibacterial peptide protocol William M. Shafer, Human Press.

[7] = system: B. subtilis; test: Minimal Effective Concentration (MEC) assay; format: cell-based, Bacillus subtilis
Procedure: as §2

[8] = system: Staphylococcus aureus, ATCC 29737; test: MIC, NCCLS/CLSI guidelines (Example 5), strain C; format: cell-based; conditions: relative to wildtype Plectasin; average of two independent experiments
Procedure, shortened: (§3)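 MICs of purified plectasin peptides are measured according to NCCLS/CLSI guidance. Each value averages duplicate independent experiments and is given as a category relative to wild-type: 0 above 100%, 1 80-100%, 2 50-80%, 3 below 50%.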

[9] = system: Staphylococcus aureus, MRSA ST80 (2003); test: MIC, NCCLS/CLSI guidelines (Example 5), strain E; format: cell-based; conditions: relative to wildtype Plectasin; average of two independent experiments
Procedure, shortened: (§4)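 Expressed, purified plectasin wild-type and variant peptides were tested for minimal inhibitory concentration under NCCLS/CLSI guidelines. Values are the mean of two independent experiments, scored relative to wild-type plectasin MIC: 0 >100%, 1 80-100%, 2 50-80%, 3 <50%.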

[10] = system: Staphylococcus aureus, MRSA ST5 (2001); test: MIC, NCCLS/CLSI guidelines (Example 5), strain D; format: cell-based; conditions: relative to wildtype Plectasin; average of two independent experiments
Procedure, shortened: as §4

[11] = system: S. epidermis; test: Minimal Effective Concentration (MEC) assay; format: cell-based, Staphylococcus epidermidis
Procedure: as §2

[12] = system: Staphylococcus aureus, ATCC 25923; test: MIC, NCCLS/CLSI guidelines (Example 5), strain B; format: cell-based; conditions: relative to wildtype Plectasin; average of two independent experiments
Procedure, shortened: as §3

[13] = system: Staphylococcus aureus, ATCC 29213; test: MIC, NCCLS/CLSI guidelines (Example 5), strain A; format: cell-based; conditions: relative to wildtype Plectasin; average of two independent experiments
Procedure, shortened: as §3

GFGCNGPWDEGDMQCHNHCKSIKGYRGGYCAKGGFVCKCY [D11G + K26R]
Average MIC [1]: 11 micrograms/mL | MIC against B. subtilis [2]: 0.50 micrograms/mL | MIC against M. luteus [3]: 8 micrograms/mL | MIC against S. aureus [4]: 2 micrograms/mL | Activity (antimicrobial activity, clearing zone size) [5]: 2

GFGCNGPWDEDDKQCHNHCKSIKGYKGGYCAKGGFVCKCYR [M13K + Y40YR]
Average MIC [1]: 12 micrograms/mL | MIC against B. subtilis [2]: 0.25 micrograms/mL | MIC against M. luteus [3]: 2 micrograms/mL | MIC against S. aureus [4]: 2 micrograms/mL | Activity (antimicrobial activity, clearing zone size) [5]: 4

Y25R (GFGCNGPWDEDDMQCHNHCKSIKGRKGGYCAKGGFVCKCY) [Mutation Y25R]
MEC against M. luteus [6]: 1.40 micrograms/mL | MEC against B. subtilis [7]: 0.04 micrograms/mL

GFGCNGPWDEDDMQCHRHCKSIKGYKGGYCAKGGFVCKCY [Mutation N17R]
Relative MIC, strain C [8]: 3 (<50% of Plectasin wildtype MIC) | Relative MIC, strain E [9]: 2 (50-80% of Plectasin wildtype MIC) | Average MIC [1]: 4 micrograms/mL | Relative MIC, strain D [10]: 3 (<50% of Plectasin wildtype MIC) | MEC against S. epidermis [11]: 0.59 micrograms/mL | Relative MIC, strain B [12]: 3 (<50% of Plectasin wildtype MIC) | MEC against M. luteus [6]: 0.32 micrograms/mL | Activity (antimicrobial activity, clearing zone size) [5]: 2 | MEC against B. subtilis [7]: 0.07 micrograms/mL

GFGCNGPWDEGDMQCHNHCKSIKGYRGGYCAKGGFVCKCYR (Synthetic antimicrobial polypeptide) [D11G + K26R + Y40YR]
Relative MIC, strain C [8]: 3 (<50% of Plectasin wildtype MIC) | Average MIC [1]: 9 micrograms/mL | Relative MIC, strain D [10]: 3 (<50% of Plectasin wildtype MIC) | MIC against B. subtilis [2]: 0.06 micrograms/mL | Relative MIC, strain A [13]: 3 (<50% of Plectasin wildtype MIC) | MIC against M. luteus [3]: 0.25 micrograms/mL | Relative MIC, strain B [12]: 3 (<50% of Plectasin wildtype MIC) | MIC against S. aureus [4]: 0.50 micrograms/mL | Activity (antimicrobial activity, clearing zone size) [5]: 4

GFGCNGPWDEDDMQCHNHCKSIKGYKGGYCAKGGFVCKCYR [Mutation Y40YR]
MEC against S. epidermis [11]: 0.31 micrograms/mL | MEC against M. luteus [6]: 0.18 micrograms/mL | Activity (antimicrobial activity, clearing zone size) [5]: 2 | MEC against B. subtilis [7]: 0.05 micrograms/mL

GFGCNGPWDEDDKQCHNHCKSIKGYKGGYCAKGGFVCRCY [M13K + K38R]
Relative MIC, strain C [8]: 3 (<50% of Plectasin wildtype MIC) | Relative MIC, strain E [9]: 3 (<50% of Plectasin wildtype MIC) | Average MIC [1]: 6 micrograms/mL | Relative MIC, strain D [10]: 2 (50-80% of Plectasin wildtype MIC) | Relative MIC, strain A [13]: 1 (80-100% of Plectasin wildtype MIC) | Relative MIC, strain B [12]: 3 (<50% of Plectasin wildtype MIC) | Activity (antimicrobial activity, clearing zone size) [5]: 4

GFGCNGPWDEGDKQCHNHCKSIKGYRGGYCAKGGFVCKCYR [D11G + M13K + K26R + Y40YR]
Average MIC [1]: 12 micrograms/mL | MIC against B. subtilis [2]: <0.03 micrograms/mL | MIC against M. luteus [3]: 0.50 micrograms/mL | MIC against S. aureus [4]: 0.50 micrograms/mL | Activity (antimicrobial activity, clearing zone size) [5]: 4

Q14K + K26R: variant of Plectasin (SEQ ID NO: 1) (GFGCNGPWDEDDMKCHNHCKSIKGYRGGYCAKGGFVCKCY)
Relative MIC, strain C [8]: 3 (<50% of Plectasin wildtype MIC) | Relative MIC, strain E [9]: 3 (<50% of Plectasin wildtype MIC) | Average MIC [1]: 6 micrograms/mL | Relative MIC, strain D [10]: 3 (<50% of Plectasin wildtype MIC) | MIC against B. subtilis [2]: 0.13 micrograms/mL | Relative MIC, strain A [13]: 3 (<50% of Plectasin wildtype MIC) | MIC against M. luteus [3]: 1 micrograms/mL | Relative MIC, strain B [12]: 2 (50-80% of Plectasin wildtype MIC) | MIC against S. aureus [4]: 2 micrograms/mL

GFGCNGPWDEDDMQCHYHCKSIKGYKGGYCAKGGFVCKCY [Mutation N17Y]
Relative MIC, strain C [8]: 3 (<50% of Plectasin wildtype MIC) | Relative MIC, strain E [9]: 2 (50-80% of Plectasin wildtype MIC) | Average MIC [1]: 6 micrograms/mL | Relative MIC, strain D [10]: 2 (50-80% of Plectasin wildtype MIC) | Relative MIC, strain A [13]: 1 (80-100% of Plectasin wildtype MIC) | Relative MIC, strain B [12]: 3 (<50% of Plectasin wildtype MIC) | Activity (antimicrobial activity, clearing zone size) [5]: 3

GFGCNGPWDEDDMRCHNHCKSIKGYKGGYCAKGGFVCKCY [Mutation Q14R]
Relative MIC, strain C [8]: 3 (<50% of Plectasin wildtype MIC) | Relative MIC, strain E [9]: 0 (>100% of Plectasin wildtype MIC) | Average MIC [1]: 5 micrograms/mL | Relative MIC, strain D [10]: 3 (<50% of Plectasin wildtype MIC) | Relative MIC, strain A [13]: 2 (50-80% of Plectasin wildtype MIC) | Relative MIC, strain B [12]: 3 (<50% of Plectasin wildtype MIC) | Activity (antimicrobial activity, clearing zone size) [5]: 4

GFGCNGPWDEDDMQCHNHCKSIKGYRGGYCAKGGFVCKCY [Mutation K26R]
Average MIC [1]: 15 micrograms/mL | Activity (antimicrobial activity, clearing zone size) [5]: 3
